Results: patent publication US20240025880A1 (CHIESI FARMACEUTICI S.P.A., priority 2020, published 2024)
Counter-ions that a name gives are not always drawn. Like-named read-outs stand apart in the source and are kept apart here.

Columns and labels:
h P2X3 = biological target: T1, h P2X3 (Homo sapiens, UniProt P56373); assay: In vitro electrophysiology assay for P2X3 (automated whole-cell patch clamp, α,β-MeATP agonist); assay type: cell-based; settings: 800 nM α,β-MeATP, peak current, read-out: h P2X3 (pIC50 range of activity) (converted)
T1 sequence (P56373 1-397): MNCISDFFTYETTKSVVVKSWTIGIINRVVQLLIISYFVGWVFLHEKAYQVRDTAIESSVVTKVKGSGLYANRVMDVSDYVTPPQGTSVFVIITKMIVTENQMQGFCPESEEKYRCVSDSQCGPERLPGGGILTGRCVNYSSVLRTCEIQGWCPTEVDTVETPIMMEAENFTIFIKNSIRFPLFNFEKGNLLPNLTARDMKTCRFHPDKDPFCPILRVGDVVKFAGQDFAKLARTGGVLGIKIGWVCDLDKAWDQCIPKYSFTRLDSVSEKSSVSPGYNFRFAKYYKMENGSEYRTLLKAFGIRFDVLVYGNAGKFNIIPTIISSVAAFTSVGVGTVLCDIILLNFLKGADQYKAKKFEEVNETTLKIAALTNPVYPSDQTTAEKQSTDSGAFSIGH
Protocol: In Vitro Electrophysiology Assay for P2X3
(§1) Cells expressing P2X3 receptors were grown according to standard practice and maintained at 37° C. in a 5% humidified CO2 atmosphere. The cells were seeded into T175 flask 2 days prior to the day of the assay and dissociated from the flasks using TrypLE when grown to confluence of 80-90%. The dissociated cells were resuspended in serum free media at a cell density of 3×10^6 cells/ml and loaded onto the Sophion Qube automated patch-clamp system. The extracellular assay buffer contained 145 mM NaCl, 4 mM KCl, 2 mM CaCl2, 1 mM MgCl2, 10 mM HEPES, and 10 mM glucose at pH 7.4. The intracellular assay solution contained 140 mM CsF, 10 mM NaCl, 10 mM EGTA, 10 mM HEPES at pH 7.2. Agonist stock solutions were prepared in H2O and diluted in bath solution prior to use. All antagonists were prepared as 10 mM stock solutions in DMSO and diluted in bath solution prior to use. All experiments were performed under the whole-cell patch clamp configuration at room temperature with 384 individual cells being voltage clamped at −60 mV simultaneously on the Sophion Qube instrument. Two baseline responses were established with the application of α,β-MeATP (800 nM), with the subsequent agonist applications being washed out using extracellular assay buffer containing 0.5 U/ml apyrase. Following the second agonist application, antagonist was incubated in the absence of α,β-MeATP for 10 minutes. After antagonist preincubation, 800 nM α,β-MeATP and antagonist were co-administered to determine the inhibitory effect of the antagonist. One concentration of an antagonist was assessed against a single cell, with different concentrations of the antagonist applied to other cells on the 384 recording substrate. The control P2X3 current amplitude was taken from the peak current amplitude from the second agonist response prior to preincubation with antagonist. The peak P2X3 current amplitude in the presence of antagonist was used to calculate the inhibitory effect at each concentration of the antagonist according to the following equation:
Percentage inhibition of P2X3=(P2X3 control peak amplitude−P2X3 antagonist peak amplitude)/P2X3 control peak amplitude)*100
Concentration-response curves were constructed from ten different concentrations with each concentration of antagonist tested on at least two individual cells. The concentration of the antagonist to inhibit P2X3 current by 50% (IC50) was determined by fitting the data with the following equation:
Y=a+[(b−a)/(1+10^((log c−x)d)]
Where ‘a’ is minimum response, ‘b’ is maximum response, ‘c’ is IC50 and ‘d’ is Hill slope.

h P2X2/3 = biological target: T2, h P2X2/3 (Homo sapiens, UniProt P56373+Q9UBL9); assay: In vitro electrophysiology assay for P2X2/3 (same protocol, 10 μM ATP agonist); assay type: cell-based; settings: Table 3, mean current seven seconds after agonist, read-out: h P2X2/3 (pIC50 range of activity) (converted)
T2 construct: host or cells: cells not described; same protocol as the P2X3 assay
T2 sequence (P56373 1-397): T1 sequence (P56373 1-397)
T2 sequence (Q9UBL9 1-471): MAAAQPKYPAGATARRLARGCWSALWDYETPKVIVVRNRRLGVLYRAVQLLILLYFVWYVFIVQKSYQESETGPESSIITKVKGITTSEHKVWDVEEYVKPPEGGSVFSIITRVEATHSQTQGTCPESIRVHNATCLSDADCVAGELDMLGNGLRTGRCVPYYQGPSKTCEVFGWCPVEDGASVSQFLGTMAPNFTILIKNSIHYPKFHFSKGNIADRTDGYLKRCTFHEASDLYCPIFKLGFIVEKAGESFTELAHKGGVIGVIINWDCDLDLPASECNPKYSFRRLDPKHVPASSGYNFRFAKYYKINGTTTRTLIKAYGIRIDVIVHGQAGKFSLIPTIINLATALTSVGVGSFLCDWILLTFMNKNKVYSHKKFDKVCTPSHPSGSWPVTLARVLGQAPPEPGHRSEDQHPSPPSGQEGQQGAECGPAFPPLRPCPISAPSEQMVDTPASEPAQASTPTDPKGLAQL
Protocol: as §1, with “equation: […]” for “equation:”
In vitro Electrophysiology Assay for P2X2/3
Representative compound of the present invention have been also tested for P2X2/3 receptor.
The same assay protocol was used for the P2X2/3 assay as the P2X3 assay with two modifications: 1) 10 μM ATP was used as the agonist; and 2) the mean current amplitude was measured seven seconds after the application of agonist.

Row | SMILES | IC50 (h P2X3; Table 2) [nM] | IC50 (h P2X3; Table 3) [nM] | IC50 (h P2X2/3) [nM]
1 | Cc1cnc(-c2cc(OCC(F)F)c3ncnc(NCc4ccc(C)nn4)c3c2)nc1 [Example 9, 8-(2,2-difluoroethoxy)-N-[(6-methylpyridazin-3-yl)methyl]-6-(5-methylpyrimidin-2-yl)quinazolin-4-amine] | < 316 | < 316 | 316 to 3160
2 | Cc1ccc(CNc2ncnc3c(OCC(F)F)cc(-c4ccc(F)cc4)cc23)nn1 [Example 1, 8-(2,2-difluoroethoxy)-6-(4-fluorophenyl)-N-((6-methylpyridazin-3-yl)methyl)quinazolin-4-amine] | < 316 | < 316 | 3160 to 31600
3 | COC(=O)N1CCC(Oc2cc(-c3ccc(F)cc3)cc3c(NCc4ccc(C)nn4)ncnc23)C1 (stereo not drawn) [Example 68, Methyl 3-[6-(4-fluorophenyl)-4-[(6-methylpyridazin-3-yl)methylamino]quinazolin-8-yl]oxypyrrolidine-1-carboxylate] | 316 to 3160 | 316 to 3160 | 3160 to 31600
4 | Cc1ccc(CNc2ncnc3c(OCc4nnc(C5CC5)o4)cc(-c4ccc(F)cc4)cc23)nn1 [Example 62, 8-((5-cyclopropyl-1,3,4-oxadiazol-2-yl)methoxy)-6-(4-fluorophenyl)-N-((6-methylpyridazin-3-yl)methyl)quinazolin-4-amine] | < 316 | < 316 | 316 to 3160
5 | COC(=O)C1(NC(=O)COc2cc(-c3ccc(F)cc3)cc3c(NCc4ccc(C)nn4)ncnc23)CC1 [Example 42, Methyl 1-(2-((6-(4-fluorophenyl)-4-(((6-methylpyridazin-3-yl)methyl)amino)quinazolin-8-yl)oxy)acetamido)cyclopropane-1-carboxylate] | 316 to 3160 | 316 to 3160 | 3160 to 31600
6 | C[C@@H](Nc1ncnc2c(OCC3(C(=O)O)CCNCC3)cc(-c3ccc(F)cc3)cc12)c1cnc(C(F)(F)F)nc1 [Example 47, (R)-4-(((6-(4-fluorophenyl)-4-((1-(2-(trifluoromethyl)pyrimidin-5-yl)ethyl)amino)quinazolin-8-yl)oxy)methyl)piperidine-4-carboxylic acid hydrochloride] | 316 to 3160 | 316 to 3160 | 3160 to 31600
7 | COC(=O)C1(NC(=O)COc2cc(-c3ccc(F)cc3)cc3c(N[C@H](C)c4cnc(C(F)(F)F)nc4)ncnc23)CC1 [Example 43, Methyl (R)-1-(2-((6-(4-fluorophenyl)-4-((1-(2-(trifluoromethyl)pyrimidin-5-yl)ethyl)amino)quinazolin-8-yl)oxy)acetamido) cyclopropane-1-carboxylate] | 316 to 3160 | 316 to 3160 | 3160 to 31600
8 | COC(=O)N1CCC(Oc2cc(-c3ccc(F)cc3)cc3c(NCc4ccc(C)nn4)ncnc23)CC1 [Example 65, Methyl 4-[6-(4-fluorophenyl)-4-[(6-methylpyridazin-3-yl)methylamino]quinazolin-8-yl]oxypiperidine-1-carboxylate] | 316 to 3160 | 316 to 3160 | 3160 to 31600
9 | Cc1nnc(C(C)Nc2ncnc3c(OCC(F)F)cc(-c4ccc(F)cn4)cc23)s1 (single isomer, unassigned; enantiomer 1) [Example 6, Single enantiomer 1 of 8-(2,2-difluoroethoxy)-6-(5-fluoro-2-pyridyl)-N-[1-(5-methyl-1,3,4-thiadiazol-2-yl)ethyl]quinazolin-4-amine] | < 316 | < 316 | 3160 to 31600

Second part, the molecule after the results:

Row | IC50 (h P2X3; Table 2) [nM] | IC50 (h P2X3; Table 3) [nM] | IC50 (h P2X2/3) [nM] | SMILES
10 | < 316 | < 316 | 3160 to 31600 | CNS(=O)(=O)c1cc(-c2ccc(F)cc2)cc2c(N[C@H](C)c3noc(C)n3)ncnc12 [Example 22, (R)-6-(4-fluorophenyl)-N-methyl-4-((1-(5-methyl-1,2,4-oxadiazol-3-yl)ethyl)amino)quinazoline-8-sulfonamide]
11 | < 316 | < 316 | 316 to 3160 | Cc1ccc([C@@H](C)Nc2ncnc3c(S(=O)(=O)N4CCC(F)(F)C4)cc(-c4ccc(F)cc4)cc23)nn1 [Example 16]
12 | < 316 | < 316 | 3160 to 31600 | CNS(=O)(=O)c1cc(-c2ccc(F)cc2)cc2c(N[C@H](C)c3ccc(C)nn3)ncnc12 [Example 21, (R)-6-(4-fluorophenyl)-N-methyl-4-((1-(6-methylpyridazin-3-yl)ethyl)amino)quinazoline-8-sulfonamide]
13 | < 316 | < 316 | 316 to 3160 | Cc1nc([C@@H](C)Nc2ncnc3c(S(=O)(=O)N(C)C)cc(-c4ccc(F)cc4)cc23)no1 (stereo in doubt) [Example 15, 6-(4-fluorophenyl)-N,N-dimethyl-4-((1-(5-methyl-1,2,4-oxadiazol-3-yl)ethyl)amino)quinazoline-8-sulfonamide]
14 | < 316 | < 316 | 316 to 3160 | Cc1ccc([C@@H](C)Nc2ncnc3c([S+](C)[O-])cc(-c4ccc(F)cc4)cc23)nn1 (stereo partly drawn) [Example 27, 6-(4-fluorophenyl)-N-((R)-1-(6-methylpyridazin-3-yl)ethyl)-8-(methylsulfinyl)quinazolin-4-amine]
15 | < 316 | < 316 | 316 to 3160 | C[C@@H](Nc1ncnc2c(OCC(F)F)cc(-c3ccc(F)cc3)cc12)c1cnc(C(F)(F)F)nc1 [Example 2, (R)-8-(2,2-difluoroethoxy)-6-(4-fluorophenyl)-N-(1-(2-(trifluoromethyl)pyrimidin-5-yl)ethyl)quinazolin-4-amine]
